According to PMC11714206, “Massively Parallel Screening of Toll/Interleukin‐1 Receptor (TIR)‐Derived Peptides Reveals Multiple Toll‐Like Receptors (TLRs)‐Targeting Immunomodulatory Peptides” (Advanced Science, 2024):
Each block holds one sequence with its values, some of them ahead of it.

Molecular target: T1, MAL^TIR (Homo sapiens, UniProt P58753)
T1 construct: MAL (residues 79–221); 6xHis; made in house; host or cells: E. coli BL21 (DE3)
Experiment: T‐Surf phage library (P8 and P3) selection against MAL^TIR, four rounds, NGS read counts
Format: binding
Details: for Population: 4th round of selection against MAL TIR, share of NGS reads; for P8_MAL Rank (after) / P8_MAL Rank (before): P8 library; for P3_MAL Rank (after) / P3_MAL Rank (before): P3 library
Description: T‐Surf libraries were screened against the immobilized TIR domains of two major human TLR adaptor proteins, MAL^TIR and MyD88^TIR, allowing cross‐species selection of TIR‐binding motifs with 190 946 TIR‐derived peptides in a single binding assay (Scheme 1). Enriched phage pools from the fourth round of selection were analyzed using NGS after barcoding the peptide‐coding regions of the phage pools.
Phage display screening was performed by coating two wells of a 96‐well plate (Maxisorp, Thermo Fisher Scientific) with 100 µL of 5 µg mL^−1 TIR domains overnight; then, the coated wells were blocked with 200 µL of blocking buffer (0.2% BSA in PBS) and set aside for 1 h at 4 °C with gentle shaking. Next, 100 µL of the phage library was added to the wells and incubated for 1 h at room temperature (RT; 20 – 22 °C) with gentle shaking. The plate was washed four times with PBS containing 0.5% Tween‐20; the bound phages were eluted by adding 100 µL of 100 mM HCl to each well. The elute was neutralized with 10 µL of 1.0 M Tris‐HCl (pH 11.0). E. coli TG1 cells were grown to the log phase (A600 = ≈0.6), and 1 mL of the culture was incubated with 100 µL of the eluted phages for 30 min at 37 °C, with shaking at 200 rpm. Next, 1 µL of M13KO7 helper phages was added, followed by incubation for 45 min at 37 °C, with shaking. Subsequently, the cells were transferred to 25 mL of 2× yeast extract tryptone/carbenicillin/kanamycin medium and incubated overnight at 37 °C with shaking at 200 rpm. The amplified phages were precipitated with 20% PEG‐8000/2.5 M NaCl to be used for the next round of selection.
The naïve T‐Surf libraries in P8 and P3 and the enriched phage pools after four rounds were barcoded for NGS as previously described.^[ [59] ^] Briefly, 5 µL of the phage pool was used as a template for 20 cycles of a 50 µL PCR reaction using […] each of forward and reverse barcoded primers and PrimeSTAR Max DNA Polymerase. The PCR products were purified using Expin Gel SV (GeneAll). The NGS samples were quantified using qPCR, following the qPCR Quantification Protocol Guide (KAPA Library Quantification kits for Illumina Sequencing Platform), and qualified using the TapeStation High Sensitivity D1000 ScreenTape (Agilent Technologies). The indexed libraries were further sequenced by Macrogen (Seoul, Republic of Korea) using the NovaSeq platform (Illumina) with 100 bp paired‐end reads. The reads were demultiplexed by barcodes and filtered for an average Phred quality score of at least 30, followed by trimming the flanking consensus sequences using Cutadapt (version 2.3). Peptide sequence populations were analyzed according to the read counts.

[1] = P3_MAL pool: P3 T-Surf phage library
[2] = P3_MAL: rank by count after grouping
[3] = P3_MAL: rank by count before grouping
[4] = P8_MAL: rank by count after grouping
[5] = P8_MAL: rank by count before grouping
[6] = selection against MAL, rank after grouping
[7] = selection against MAL, rank before grouping
[8] = P8_MAL pool: P8 T-Surf phage library
[9] = 4R selection against MAL, rank after grouping
[10] = 4R selection against MAL, rank before grouping
[11] = selection against MAL, rank by count after grouping
[12] = selection against MAL, rank by count before grouping
[13] = selection against MAL TIR, rank by count after grouping
[14] = selection against MAL TIR, rank by count before grouping

T1 sequence (P58753 79-221): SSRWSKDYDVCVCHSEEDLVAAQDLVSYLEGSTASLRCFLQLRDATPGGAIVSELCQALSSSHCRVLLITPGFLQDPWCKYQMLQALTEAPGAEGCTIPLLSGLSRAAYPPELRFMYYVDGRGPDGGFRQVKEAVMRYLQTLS

Population [1]: 0.00413%
Sequence: NQWRNALTAEANLSGW

Rank (after) [2]: 169
Rank (before) [3]: 3353
Sequence: NQWRNALTAASNLSIW

Rank (after) [4]: 131
Rank (before) [5]: 2186
Sequence: RNFVADLYQALANKGI

P8_MAL Rank (after) [6]: 546
P8_MAL Rank (before) [7]: 2337
Sequence: HQAFWDRLWAKLKAPI

Population [8]: 0.0034%
Sequence: WFYGRLVSLILRDTKV

P3_MAL Rank (after) [6]: 502
P3_MAL Rank (before) [7]: 2612
Sequence: RNFMSHLYQGLKNRGIFTF

Population [1]: 0.00488%
Sequence: RGFLSHLRHHLQAIDH

Rank (after) [2]: 150
Rank (before) [3]: 523
Sequence: YNFISHLYDALHQFHSWV

Rank (after) [2]: 399
Rank (before) [3]: 2081
Sequence: LGFLSHLALNLQAKEH

P8_MAL Rank (after) [9]: 662
P8_MAL Rank (before) [10]: 1359
Sequence: WFLTAFRVAMEQVADT

P8_MAL Rank (after) [9]: 645
P8_MAL Rank (before) [10]: 1580
Sequence: AFFLAQLKSVMGNPTM

P8_MAL Rank (after) [6]: 515
P8_MAL Rank (before) [7]: 1644
Sequence: AFFWAQLKSELGNPSM

P3_MAL Rank (after) [11]: 768
P3_MAL Rank (before) [12]: 2667
Sequence: PNLLTKVLHYLMRTKT

P3_MAL Rank (after) [6]: 530
P3_MAL Rank (before) [7]: 2248
Sequence: LKWGDPYFWRKIRYAM

Rank (after) [2]: 118
Rank (before) [3]: 386
Sequence: KEVEGWRQALEKAGKL

Population [1]: 0.00488%
Sequence: HLLKWKEALHQFHSWV

P3_MAL Rank (after) [13]: 209
P3_MAL Rank (before) [14]: 1463
Sequence: YAFTDHLHRYVVQRGV

Rank (after) [2]: 468
Rank (before) [3]: 3252
Sequence: NGHGSAIIKEIVVTSW

P3_MAL Rank (after) [13]: 201
P3_MAL Rank (before) [14]: 1953
Sequence: DQCRNALTAAANLSGW

P8_MAL Rank (after) [13]: 217
P8_MAL Rank (before) [14]: 1145
Sequence: WFYECLVSLILRVTKV

P8_MAL Rank (after) [9]: 590
P8_MAL Rank (before) [10]: 1883
Sequence: AFLYTFLFNLTHQTNS

P3_MAL Rank (after) [13]: 283
P3_MAL Rank (before) [14]: 894
Sequence: RGFLSKLSQHILKREK

Rank (after) [2]: 160
Rank (before) [3]: 3232
Sequence: RSFRDGLWRLLELSKK

Rank (after) [2]: 408
Rank (before) [3]: 1158
Sequence: FLNFRGLDVRNYFLA

P3_MAL Rank (after) [11]: 767
P3_MAL Rank (before) [12]: 3336
Sequence: NQWRDPLTGDMILSGW

P3_MAL Rank (after) [6]: 547
P3_MAL Rank (before) [7]: 2451
Sequence: RAFVAHLYEALKKRAN

P8_MAL Rank (after) [9]: 642
P8_MAL Rank (before) [10]: 1437
Sequence: SFLHFLLFSRPETASI

Population [1]: 0.00451%
Sequence: YAFTDHLHRYLVQRGV

Population [1]: 0.00338%
Sequence: YAFTGHLHRYLVQRGI

P8_MAL Rank (after) [9]: 636
P8_MAL Rank (before) [10]: 2163
Sequence: LVFWESLKHLLRSDDR

Rank (after) [4]: 176
Rank (before) [5]: 1248
Sequence: WFYERLLSLVLRDTKV

Population [1]: 0.00827%
Sequence: YAFTGYLHRYLVQRGV

Population [8]: 0.00432%
Sequence: AFLYTLLINLTHPTNF

P3_MAL Rank (after) [9]: 623
P3_MAL Rank (before) [10]: 2894
Sequence: HQALWALMWAKHQTPI

P8_MAL Rank (after) [6]: 557
P8_MAL Rank (before) [7]: 2064
Sequence: LFFWARLKNVLGSAGS

P3_MAL Rank (after) [6]: 509
P3_MAL Rank (before) [7]: 1369
Sequence: YAFTGHLRRYLVLRGV

P3_MAL Rank (after) [13]: 263
P3_MAL Rank (before) [14]: 3433
Sequence: NHSRNALTAAANLSGW

P8_MAL Rank (after) [13]: 228
P8_MAL Rank (before) [14]: 1866
Sequence: AFLYTFLINLTHKPTF

P3_MAL Rank (after) [11]: 727
P3_MAL Rank (before) [12]: 2485
Sequence: RLLKWWDSLTQASNI

Rank (after) [2]: 113
Rank (before) [3]: 201
Sequence: FMSHLYQGLKNRGIFTF

P8_MAL Rank (after) [13]: 249
P8_MAL Rank (before) [14]: 1442
Sequence: SFYWRQVSIILGDPTV

Rank (after) [4]: 430
Rank (before) [5]: 1777
Sequence: AFLGTAAYRAGQTDD

Population [8]: 0.00402%
Sequence: AVLYTFLINLTHPTNF

P3_MAL Rank (after) [13]: 212
P3_MAL Rank (before) [14]: 1517
Sequence: YLKWGYPGLWDRLRFA

Rank (after) [4]: 166
Rank (before) [5]: 1244
Sequence: WFYERLVKLVLRDTKV

P3_MAL Rank (after) [6]: 490
P3_MAL Rank (before) [7]: 2102
Sequence: LVAHEISKKMKIFCDH

P3_MAL Rank (after) [11]: 731
P3_MAL Rank (before) [12]: 3294
Sequence: NELVHVWSSKAHSPVG

P8_MAL Rank (after) [9]: 589
P8_MAL Rank (before) [10]: 1835
Sequence: AFLYTFLIILPIRPNF

Population [8]: 0.00309%
Sequence: WFYERLVSLILRYTKV

Rank (after) [2]: 465
Rank (before) [3]: 3483
Sequence: KCFWVTLLYALHRNPR

Population [1]: 0.00451%
Rank (after) [4]: 115
Rank (before) [5]: 655
Sequence: RLLKWKEALHQFHSWV

Rank (after) [2]: 167
Rank (before) [3]: 2817
Sequence: HHNSSYGEALAEHEKR

Rank (after) [4]: 425
Rank (before) [5]: 1374
Sequence: WFMMTFRTVLHHVHDV

P3_MAL Rank (after) [9]: 635
P3_MAL Rank (before) [10]: 3210
Sequence: SSCREGLWRLLELCKK

Rank (after) [2]: 456
Rank (before) [3]: 3062
Sequence: SLCKNLVTNLIEEFNR

Population [1]: 0.00676%
Sequence: YQWRNALTAAANLSGW

P8_MAL Rank (after) [13]: 222
P8_MAL Rank (before) [14]: 1197
Sequence: WFYERLVSLILRYTKE

P8_MAL Rank (after) [6]: 540
P8_MAL Rank (before) [7]: 1225
Sequence: WFYERLVSLMLRNTKV

Rank (after) [4]: 442
Rank (before) [5]: 1756
Sequence: AFLCTQLNNVTDTPTL

P3_MAL Rank (after) [11]: 753
P3_MAL Rank (before) [12]: 1651
Sequence: VEPTQVRTQSGAAENA

Rank (after) [4]: 109
Rank (before) [5]: 2531
Sequence: REFIKKIILWMNPKIV

Rank (after) [4]: 145
Rank (before) [5]: 1868
Sequence: AFLYTFLNNLIHPTTF

Rank (after) [4]: 390
Rank (before) [5]: 1526
Sequence: YAASPWWFDELVKIVG

P8_MAL Rank (after) [6]: 563
P8_MAL Rank (before) [7]: 2097
Sequence: LFFWESLKQLLRRWP

Rank (after) [4]: 407
Rank (before) [5]: 2249
Sequence: RNYVAYLFQALASKGI

Population [8]: 0.00309%
Sequence: WFYERLVSLILRNTKV

Rank (after) [4]: 162
Rank (before) [5]: 1829
Sequence: AFLYTFLLNLTHPTHF

P8_MAL Rank (after) [9]: 614
P8_MAL Rank (before) [10]: 2335
Sequence: HLLKIVLEKFASHRSS

P8_MAL Rank (after) [9]: 593
P8_MAL Rank (before) [10]: 2068
Sequence: LFFWDSLKHLLRCDGC

Population [8]: 0.0034%
Sequence: WFYERLVGLILRDTKV

P3_MAL Rank (after) [11]: 717
P3_MAL Rank (before) [12]: 1132
Sequence: FAFTGQMLRYMVRSGL

Rank (after) [4]: 447
Rank (before) [5]: 1990
Sequence: DPQDLQWFYERLVSLI

P3_MAL Rank (after) [11]: 706
P3_MAL Rank (before) [12]: 2352
Sequence: RGFLCHLRHHLQATDH

Rank (after) [4]: 389
Rank (before) [5]: 2066
Sequence: LFFWASLKNLLRSAGS

Population [8]: 0.00309%
Sequence: AFLYTFLINPTHPTNF

P3_MAL Rank (after) [9]: 602
P3_MAL Rank (before) [10]: 3516
Sequence: KWFWEKLRYALTYRPAT

Rank (after) [4]: 467
Rank (before) [5]: 2088
Sequence: LFFWESLKPLPRRDGR

Rank (after) [2]: 436
Rank (before) [3]: 1289
Sequence: WHFPLPLRMQELLRKM

Sequence: WRCLNFVPRCIMCCR
P3_MAL Rank (after) [6]: 482
P3_MAL Rank (before) [7]: 1287

P8_MAL Rank (after) [6]: 510
P8_MAL Rank (before) [7]: 2323
Sequence: PFFWEQLRTVLGKPTK

Population [8]: 0.0034%
Sequence: WFFERLVSLILRDTKV

P3_MAL Rank (after) [11]: 765
P3_MAL Rank (before) [12]: 3469
Sequence: KHSNNDQKWAETASRK

Rank (after) [2]: 147
Rank (before) [3]: 1468
Sequence: YAFTRHLHRYLVQSGV

P3_MAL Rank (after) [9]: 613
P3_MAL Rank (before) [10]: 3325
Sequence: NQLRNALTASANLSGW

Rank (after) [4]: 435
Rank (before) [5]: 1924
Sequence: ALFWEQLRTVLGKLTM

P8_MAL Rank (after) [9]: 588
P8_MAL Rank (before) [10]: 2579
Sequence: TFLGHLYNALVQAGIRAFL

P3_MAL Rank (after) [6]: 573
P3_MAL Rank (before) [7]: 1683
Sequence: VEPTQGRKQLGAVENA

P3_MAL Rank (after) [13]: 205
P3_MAL Rank (before) [14]: 2392
Sequence: RGFLSHLSNLLQAKDH

Rank (after) [2]: 477
Rank (before) [3]: 2709
Sequence: PNLRTKVLNSLMSTKT

P8_MAL Rank (after) [6]: 495
P8_MAL Rank (before) [7]: 2116
Sequence: LFFWESLKNVLRKPGL
